Tested on in the first series: not listed separately
Nature of the series: pKa of secondary dye. The following applies: second pKa of the dye. It counts as physicochemical. The text has this: Structure A represents the general structure of phenolsulfonephthalein derivatives in protic solvents such as water or an alcohol while structure B represents the form that predominates in the dry state or in aprotic solvents such as ethers and acetonitrile. The phenolsulfonephthalein error indicators are pH indicators which include an ionizable proton having a pKa value such that the proton is displaced by the presence of protein. The pKa value of a phenolsulfonephthalein indicator is the pH at which one half of the number of indicator molecules include the deprotonated C ring phenolic hydroxyl group. In the case of the phenolsulfonephthalein protein error indicators illustrated above, two deprotonation events occur in order to cause an observable color change. The first deprotonation removes the proton from the aryl sulfonic acid on the A ring to yield the ion illustrated below as formula C: [drawing 2]
The pKa of this proton is less than one, resulting in the ionization of this moiety at all useful pH values. This ionizable group is also responsible for the aqueous solubility of these compounds. The second deprotonation involves the release of a proton from the C ring phenolic hydroxyl to yield the dianion. With this type of protein error indicator, the second deprotonization causes the observable color change which is indicative of the presence of protein in the sample being tested. The phenolsulfonephthalein protein error indicator is typically applied to an absorbent matrix material along with a buffer to provide an environment of constant pH, so that one can rely on the color change being the result of the presence of protein rather than the result of a pH change upon contact with the test fluid.
As to `O=[N+]([O-])c1cc(C2(c3cc(Br)c(O)c([N+](=O)[O-])c3)OS(=O)(=O)c3c(Br)c(Br)c(Br)c(Br)c32)cc(Br)c1O` [Secondary dye 6, 5',5"-Dinitro-3',3",3,4,5,6-hexabromophenolsulfonephthalein], the pKa is 1.6.

Compound `O=S1(=O)OC(c2cc(I)c(O)c(I)c2)(c2cc(I)c(O)c(I)c2)c2ccccc21` [Secondary dye 4, Tetraiodophenolsulfonephthalein] came in with a pKa of 4.0.

Take `O=S1(=O)OC(c2cc(Br)c(O)c(Br)c2)(c2cc(Br)c(O)c(Br)c2)c2c(Br)c(Br)c(Br)c(Br)c21` [Secondary dye 2, Tetrabromophenol blue]: the pKa turned out to be 3.5.

Regarding `O=S1(=O)OC(c2cc(Br)c(O)c(Br)c2)(c2cc(Br)c(O)c(Br)c2)c2ccccc21` [Secondary dye 1, Bromophenol blue], the pKa is recorded as 3.7.

The compound `O=S1(=O)OC(c2cc(Cl)c(O)c(Br)c2)(c2cc(Cl)c(O)c(Br)c2)c2ccccc21` [Secondary dye 3, Bromochlorophenol blue] had a pKa of 3.8.

`O=[N+]([O-])c1cc(C2(c3cc(Br)c(O)c(I)c3)OS(=O)(=O)c3c(Br)c(Br)c(Br)c(Br)c32)cc(Br)c1O` (centres unmarked) [Secondary dye 7, 5'-Nitro-5''-Iodo-3',3"3,4,5,6-hexabromophenolsulfonephthalein] came in with a pKa of 1.6.

Compound `O=[N+]([O-])c1cc(C2(c3cc(I)c(O)c([N+](=O)[O-])c3)OS(=O)(=O)c3c(Br)c(Br)c(Br)c(Br)c32)cc(I)c1O` [Secondary dye 5, 5',5"-Dinitro-3',3"-Diiodo-3,4,5,6-Tetrabromophenolsulfonephthalein] gave a pKa of 1.5.

Another series relates to protein. Nature of the series: Ka, affinity of secondary dye for protein. The format is binding.
Conditions: not given
The text has this: The phenolsulfonephthalein protein error indicators are used in conjunction with the molybdate or tungstate salt assay for protein in which a fluid test sample is combined with a molybdate or tungstate salt and a dye which forms a complex therewith whose absorption band is shifted in the presence of protein. As is disclosed in U.S. Pat. No. 5,399,498; tungstate reacts with the indicator to form a complex whose color shifts in the presence of protein in a manner similar to that of molybdenum. This patent also discloses the use of phytic acid or derivatives thereof to reduce background interference in this sort of assay. […] This method is a total protein assay since the response is not dependent on the type of protein present in the test sample. […] Since total protein assays are useful in the detection of certain disease states, and the higher the total protein spillover into urine the more serious the potential problem, a total protein assay which provides a detectable response at high protein concentrations is desirable.
As to `O=[N+]([O-])c1cc(C2(c3cc(I)c(O)c([N+](=O)[O-])c3)OS(=O)(=O)c3c(Br)c(Br)c(Br)c(Br)c32)cc(I)c1O` [Secondary dye 5, 5',5"-Dinitro-3',3"-Diiodo-3,4,5,6-Tetrabromophenolsulfonephthalein], the “affinity for protein (in words)” value was “too high an affinity for proteins”.

For the origin of these results see patent publication US5908787A, “Total protein detection method” (Bayer Corporation, priority 1997, dated 1999).
